# Assay results taken from ChEMBL document CHEMBL3045033, “Synthesis of new potential anticancer agents based on 4-thiazolidinone and oleanane scaffolds” (Med Chem Res, 2012).
# Values joined by “and” are separate entries in the source; they are usually repeats but may differ in a detail not shown here. Identical values can stand only once.
# Assays:
# Assay type in all cases: functional
# [1] = Cytotoxicity against Homo sapiens (human) NCI-ADR-RES cells after 48 hr by SRB assay
# HCT-116 = experiment: Cytotoxicity against Homo sapiens (human) HCT116 cells at 10^-4 to 10^-8 M after 48 hr by SRB assay; details: HCT-116, 48 h, read-out: pTGI (converted)
# OVCAR-5 [2] = experiment: Cytotoxicity against Homo sapiens (human) OVCAR5 cells after 48 hr by SRB assay
# OVCAR-3 = experiment: Cytotoxicity against Homo sapiens (human) OVCAR3 cells after 48 hr by SRB assay
# HOP-62 = experiment: Cytotoxicity against Homo sapiens (human) HOP62 cells at 10^-4 to 10^-8 M after 48 hr by SRB assay; details: HOP-62, 48 h, read-out: pTGI (converted)
# SF-268 = experiment: Cytotoxicity against Homo sapiens (human) SF268 cells at 10^-4 to 10^-8 M after 48 hr by SRB assay; details: SF-268, 48 h, read-out: pTGI (converted)
# SNB-75 [3] = experiment: Cytotoxicity against Homo sapiens (human) SNB75 cells at 10^-4 to 10^-8 M after 48 hr by SRB assay; details: SNB-75, 48 h, read-out: pTGI (converted)
# 786-0 = experiment: Cytotoxicity against Homo sapiens (human) 786-0 cells at 10^-4 to 10^-8 M after 48 hr by SRB assay; details: 786-0, 48 h, read-out: pTGI (converted)
# CAKI-1 = experiment: Cytotoxicity against Homo sapiens (human) Caki1 cells at 10^-4 to 10^-8 M after 48 hr by SRB assay; details: CAKI-1, 48 h, read-out: pTGI (converted)
# TK-10 = experiment: Cytotoxicity against Homo sapiens (human) TK10 cells at 10^-4 to 10^-8 M after 48 hr by SRB assay; details: TK-10, 48 h, read-out: pTGI (converted)
# OVCAR-8 = experiment: Cytotoxicity against Homo sapiens (human) OVCAR8 cells at 10^-4 to 10^-8 M after 48 hr by SRB assay; details: OVCAR-8, 48 h, read-out: pTGI (converted)
# NCI-H322M = experiment: Cytotoxicity against Homo sapiens (human) NCI-H322M cells after 48 hr by SRB assay
# MOLT-4 = experiment: Cytotoxicity against Homo sapiens (human) MOLT4 cells at 10^-4 to 10^-8 M after 48 hr by SRB assay; details: MOLT-4, 48 h, read-out: pTGI (converted)
# SR [4] = experiment: Cytotoxicity against Homo sapiens (human) SR cells assessed as cellular growth at 10^-5 M after 48 hr by SRB assay relative to untreated control
# NCI-H460 = experiment: Cytotoxicity against Homo sapiens (human) NCI-H460 cells at 10^-4 to 10^-8 M after 48 hr by SRB assay; details: NCI-H460, 48 h, read-out: pTGI (converted)
# NCI-H226 = experiment: Cytotoxicity against Homo sapiens (human) NCI-H226 cells at 10^-4 to 10^-8 M after 48 hr by SRB assay; details: NCI-H226, 48 h, read-out: pTGI (converted)
# SNB-75 [5] = experiment: Cytotoxicity against Homo sapiens (human) SNB75 cells after 48 hr by SRB assay
# HT-29 = experiment: Cytotoxicity against Homo sapiens (human) HT-29 cells after 48 hr by SRB assay
# RPMI-8226 = experiment: Cytotoxicity against Homo sapiens (human) RPMI8226 cells at 10^-4 to 10^-8 M after 48 hr by SRB assay; details: RPMI-8226, 48 h, read-out: pTGI (converted)
# HL-60(TB) = experiment: Cytotoxicity against Homo sapiens (human) HL-60(TB) cells at 10^-4 to 10^-8 M after 48 hr by SRB assay; details: HL-60, 48 h, read-out: pTGI (converted)
# A549 = experiment: Cytotoxicity against Homo sapiens (human) A549 cells at 10^-4 to 10^-8 M after 48 hr by SRB assay; details: A549, 48 h, read-out: pTGI (converted)
# OVCAR-5 [6] = experiment: Cytotoxicity against Homo sapiens (human) OVCAR5 cells at 10^-4 to 10^-8 M after 48 hr by SRB assay; details: OVCAR-5, 48 h, read-out: pTGI (converted)
# HCC 2998 = experiment: Cytotoxicity against Homo sapiens (human) HCC2998 cells at 10^-4 to 10^-8 M after 48 hr by SRB assay; details: HCC 2998, 48 h, read-out: pTGI (converted)
# SK-OV-3 = experiment: Cytotoxicity against Homo sapiens (human) SKOV3 cells after 48 hr by SRB assay
# SW-620 = experiment: Cytotoxicity against Homo sapiens (human) SW620 cells after 48 hr by SRB assay
# SK-MEL-28 = experiment: Cytotoxicity against Homo sapiens (human) SK-MEL-28 cells at 10^-4 to 10^-8 M after 48 hr by SRB assay; details: SK-MEL-28, 48 h, read-out: pTGI (converted)
# A498 [7] = experiment: Cytotoxicity against Homo sapiens (human) A498 cells at 10^-4 to 10^-8 M after 48 hr by SRB assay; details: A498, 48 h, read-out: pTGI (converted)
# U-251 = experiment: Cytotoxicity against Homo sapiens (human) U251 cells after 48 hr by SRB assay
# SF-539 = experiment: Cytotoxicity against Homo sapiens (human) SF539 cells at 10^-4 to 10^-8 M after 48 hr by SRB assay; details: SF-539, 48 h, read-out: pTGI (converted)
# M14 = experiment: Cytotoxicity against Homo sapiens (human) M14 cells after 48 hr by SRB assay
# DU-145 = experiment: Cytotoxicity against Homo sapiens (human) DU145 cells after 48 hr by SRB assay
# SK-MEL-5 = experiment: Cytotoxicity against Homo sapiens (human) SK-MEL-5 cells at 10^-4 to 10^-8 M after 48 hr by SRB assay; details: SK-MEL-5, 48 h, read-out: pTGI (converted)
# SR [8] = experiment: Cytotoxicity against Homo sapiens (human) SR cells after 48 hr by SRB assay
# UO-31 = experiment: Cytotoxicity against Homo sapiens (human) UO31 cells at 10^-4 to 10^-8 M after 48 hr by SRB assay; details: UO-31, 48 h, read-out: pTGI (converted)
# A498 [9] = experiment: Cytotoxicity against Homo sapiens (human) A498 cells after 48 hr by SRB assay
# COLO 205 = experiment: Cytotoxicity against Homo sapiens (human) COLO205 cells at 10^-4 to 10^-8 M after 48 hr by SRB assay; details: COLO 205, 48 h, read-out: pTGI (converted)
# SF-295 = experiment: Cytotoxicity against Homo sapiens (human) SF295 cells at 10^-4 to 10^-8 M after 48 hr by SRB assay; details: SF-295, 48 h, read-out: pTGI (converted)
# [10] = Homo sapiens, NCI/ADR-RES, 48 h
SMILES,TGI (HCT-116),TGI (HOP-62),TGI (SF-268),TGI (SNB-75 [3]),TGI (786-0),TGI (CAKI-1),TGI (TK-10),TGI (OVCAR-8),TGI (MOLT-4),Activity (SR [4]),TGI (NCI-H460),TGI (NCI-H226),TGI (RPMI-8226),TGI (HL-60(TB)),TGI (A549),TGI (OVCAR-5 [6]),TGI (HCC 2998),TGI (SK-MEL-28),TGI (A498 [7]),TGI (SF-539),further results
COC(=O)[C@]12CCC(C)(C)C[C@H]1C1=CC[C@@H]3[C@@]4(C)CC/C(=N\O)C(C)(C)[C@@H]4CC[C@@]3(C)[C@]1(C)CC2,56.2 µM,44.7 µM,56.2 µM,38.9 µM,34.7 µM,47.9 µM,97.7 µM,> 100 µM,> 100 µM,-41.06%,51.3 µM,66.1 µM,> 100 µM,> 100 µM,> 100 µM,55 µM,42.7 µM,66.1 µM,63.1 µM,41.7 µM,"GI50 [1, 10]: 37.2 µM; GI50 (OVCAR-5 [2]; Homo sapiens, OVCAR-5, 48 h): 24.5 µM; GI50 (OVCAR-3; Homo sapiens, OVCAR-3, 48 h): 18.6 µM; GI50 (NCI-H322M; Homo sapiens, NCI-H322M, 48 h): 72.4 µM; GI50 (SNB-75 [5]; Homo sapiens, SNB-75, 48 h): 18.2 µM; GI50 (HT-29; Homo sapiens, HT-29, 48 h): 22.9 µM; GI50 (SK-OV-3; Homo sapiens, SK-OV-3, 48 h): 40.7 µM; GI50 (SW-620; Homo sapiens, SW-620, 48 h): 20 µM; GI50 (U-251; Homo sapiens, U-251, 48 h): 19.1 µM; GI50 (M14; Homo sapiens, M14, 48 h): 23.4 µM; GI50 (DU-145; Homo sapiens, DU-145, 48 h): 20.4 µM; TGI (SK-MEL-5): 63.1 µM; GI50 (SR [8]; Homo sapiens, SR, 48 h): 26.9 µM; TGI (UO-31): 45.7 µM; GI50 (A498 [9]; Homo sapiens, A498, 48 h): 28.2 µM; TGI (COLO 205): 57.5 µM; TGI (SF-295): 37.2 µM"
CC1(C)CC[C@@]23CC[C@]4(C)[C@@](OC2=O)([C@@H]3C1)[C@@H](Br)C[C@@H]1[C@@]2(C)CC/C(=N\O)C(C)(C)[C@@H]2CC[C@]14C,> 100 µM,> 100 µM,> 100 µM,60.3 µM,> 100 µM,> 100 µM,52.5 µM,53.7 µM,> 100 µM,-62.66%,> 100 µM,> 100 µM,> 100 µM,> 100 µM,> 100 µM,> 100 µM,> 100 µM,> 100 µM,> 100 µM,> 100 µM,"GI50 [1, 10]: 26.9 µM; GI50 (OVCAR-5 [2]; Homo sapiens, OVCAR-5, 48 h): > 100 µM; GI50 (OVCAR-3; Homo sapiens, OVCAR-3, 48 h): 11.5 µM; GI50 (NCI-H322M; Homo sapiens, NCI-H322M, 48 h): 20 µM; GI50 (SNB-75 [5]; Homo sapiens, SNB-75, 48 h): 20.4 µM; GI50 (HT-29; Homo sapiens, HT-29, 48 h): 17.8 µM; GI50 (SK-OV-3; Homo sapiens, SK-OV-3, 48 h): 30.9 µM; GI50 (SW-620; Homo sapiens, SW-620, 48 h): 6.76 µM; GI50 (U-251; Homo sapiens, U-251, 48 h): 22.4 µM; GI50 (M14; Homo sapiens, M14, 48 h): 9.12 µM; GI50 (DU-145; Homo sapiens, DU-145, 48 h): 14.1 µM; TGI (SK-MEL-5): > 100 µM; GI50 (SR [8]; Homo sapiens, SR, 48 h): 2.14 µM; TGI (UO-31): > 100 µM; GI50 (A498 [9]; Homo sapiens, A498, 48 h): 49 µM; TGI (COLO 205): > 100 µM; TGI (SF-295): 36.3 µM"
COC(=O)[C@]12CCC(C)(C)C[C@H]1C1=CC[C@@H]3[C@@]4(C)CC/C(=N\OC(=O)/C=C5/SC(=O)NC5=O)C(C)(C)[C@@H]4CC[C@@]3(C)[C@]1(C)CC2,3.39 µM,36.3 µM,10.7 µM,22.9 µM,11.5 µM,16.2 µM,8.13 µM,15.1 µM,7.41 µM,-22.69%,9.55 µM,30.9 µM,6.03 µM,5.37 µM,17.8 µM,33.9 µM,12.3 µM,3.8 µM,5.75 µM,3.63 µM,GI50 [1]: 61.7 µM and 7.59 µM; GI50 (OVCAR-5 [2]): 60.3 µM and 18.6 µM; GI50 (OVCAR-3): 6.31 µM and 1.91 µM; GI50 (NCI-H322M): 58.9 µM and 18.2 µM; GI50 (SNB-75 [5]): 49 µM and 10.7 µM; GI50 (HT-29): 15.8 µM and 2.24 µM; GI50 (SK-OV-3): 61.7 µM and 20 µM; GI50 (SW-620): 7.59 µM and 2 µM; GI50 (U-251): 6.76 µM and 1.78 µM; GI50 (M14): ≥ 20 µM; GI50 (DU-145): 42.7 µM and 5.13 µM; TGI (SK-MEL-5): 17.8 µM; GI50 (SR [8]): 8.91 µM and 1.7 µM; TGI (UO-31): 2.95 µM; GI50 (A498 [9]): 17.8 µM and 2.57 µM; TGI (COLO 205): 5.37 µM; TGI (SF-295): 20.9 µM
